Test results as given in patent US11896591B2, “Compositions and methods for preparing and using mitochondrial uncouplers” (UNIVERSITY OF VIRGINIA PATENT FOUNDATION, priority 2017, dated 2024).

System: whole cells
Experiment: Oxygen consumption rate (OCR) in whole cells, Seahorse XF-24 Flux Analyzer
Type: cell-based
Settings: binned EC50 values; increase in oxygen consumption rate in whole cells
Procedure: Biological activities of the compounds synthesized is determined by determining increase in oxygen consumption rate (OCR).
OCR is measured using a Seahorse XF-24 Flux Analyzer (Seahorse Biosciences, North Billerica, MA). NMuLi, C2C12, and L6 cells are seeded in a Seahorse 24-well tissue culture plate at a density of 3.5×10^4 cells/well, isolated cardiomyocytes at a density of 4×10^4 cells/well, and human primary fibroblasts at a density of 1.1×10^4 cells/well. The cells are then allowed to adhere for 24 h. […] Compounds are injected during the assay and OCR is measured using 2 min measurement periods.
2-3 wells are used per condition and averaged over three plates (n=6-9). Statistical significance is determined by two-way ANOVA with Bonferroni's posttest.

| EC50 [µM] | SMILES |
| --- | --- |
| < 5 | FC(F)(F)c1ccc(Nc2nccnc2Nc2ccc(C(F)(F)F)cc2)cc1 [Compound 16c, N^2,N^3-bis(4-(trifluoromethyl)phenyl)pyrazine-2,3-diamine] |
| > 20 | CCCNc1nc2[nH]c(C(F)(F)F)nc2nc1Nc1ccccc1F [Compound 12w, N^5-(2-fluorophenyl)-N^6-propyl-2-(trifluoromethyl)-1H-imidazo[4,5-b]pyrazine-5,6-diamine] |
| < 5 | Fc1ccccc1Nc1nc2nc(C(F)(F)F)[nH]c2nc1Nc1ccc(OC(F)(F)F)cc1 [Compound 12p, N^5-(2-fluorophenyl)-N^6-(4-(trifluoromethoxy)phenyl)-2-(trifluoromethyl)-1H-imidazo[4,5-b]pyrazine-5,6-diamine] |
| 5 to 20 | Cn1c(C(F)(F)F)nc2nc(Nc3ccc(OC(F)(F)F)c(F)c3)c(Nc3ccc(OC(F)(F)F)c(F)c3)nc21 [Compound 13f, N^5,N^6-bis(3-fluoro-4-(trifluoromethoxy)phenyl)-1-methyl-2-(trifluoromethyl)-imidazo[4,5-b]pyrazine-5,6-diamine] |
| < 5 | Fc1cc(C(F)(F)F)ccc1Nc1nc2nc(C(F)(F)F)[nH]c2nc1Nc1ccc(C(F)(F)F)cc1F [Compound 12g, N^5,N^6-bis(2-fluoro-4-(trifluoromethyl)phenyl)-2-(trifluoromethyl)-1H-imidazo[4,5-b]pyrazine-5,6-diamine] |
| 5 to 20 | FC(F)(F)c1cc(Nc2nc3nc(C(F)(F)F)[nH]c3nc2Nc2cc(C(F)(F)F)cc(C(F)(F)F)c2)cc(C(F)(F)F)c1 [Compound 12d, N^5,N^6-bis(3,5-bis(trifluoromethyl)phenyl)-2-(trifluoromethyl)-1H-imidazo[4,5-b]pyrazine-5,6-diamine] |
| > 20 | FC(F)(F)c1nc2nc(Nc3ccccc3)c(Nc3ccccc3)nc2[nH]1 [Compound 12l, N^5,N^6-diphenyl-2-(trifluoromethyl)-1H-imidazo[4,5-b]pyrazine-5,6-diamine] |
| > 20 | CCCNc1nc2c(nc1Nc1ccccc1F)nc(C(F)(F)F)n2C [Compound 13w, 1-Methyl-N^5-(2-fluorophenyl)-N^6-propyl-2-(trifluoromethyl)-imidazo[4,5-b]pyrazine-5,6-diamine] |
| < 5 | FC(F)(F)Oc1ccc(Nc2nccnc2Nc2ccc(OC(F)(F)F)cc2)cc1 [Compound 16n, N^2,N^3-bis(4-(trifluoromethoxy)phenyl)pyrazine-2,3-diamine] |
| < 5 | Fc1cccc(Nc2nc3nc(C(F)(F)F)[nH]c3nc2Nc2cccc(F)c2F)c1F [Compound 12j, N^5,N^6-bis(2,3-difluorophenyl)-2-(trifluoromethyl)-1H-imidazo[4,5-b]pyrazine-5,6-diamine] |
| > 20 | COc1ccc(Nc2nc3c(nc2Nc2ccccc2F)nc(C(F)(F)F)n3C)cc1 [Compound 13r, 1-Methyl-N^5-(2-fluorophenyl)-N^6-(4-methoxyphenyl)-2-(trifluoromethyl)-imidazo[4,5-b]pyrazine-5,6-diamine] |
| 5 to 20 | Cn1c(C(F)(F)F)nc2nc(Nc3cccc(C(F)(F)F)c3F)c(Nc3cccc(C(F)(F)F)c3F)nc21 [Compound 13e, N^5,N^6-bis(2-fluoro-3-(trifluoromethyl)phenyl)-1-methyl-2-(trifluoromethyl)-imidazo[4,5-b]pyrazine-5,6-diamine] |
| 5 to 20 | CCNc1nc2nonc2nc1Nc1ccccc1F [Compound 7b, N^5-ethyl-N^6-(2-fluorophenyl)-[1,2,5]oxadiazolo[3,4-b]pyrazine-5,6-diamine] |
| < 5 | Fc1ccccc1Nc1nc2nc(C(F)(F)F)[nH]c2nc1Nc1cccc(C(F)(F)F)c1F [Compound 12t, N^5-(2-fluorophenyl)-N^6-(2-fluoro-3-(trifluoromethyl)phenyl)-2-(trifluoromethyl)-1H-imidazo[4,5-b]pyrazine-5,6-diamine] |
| > 20 | Fc1ccccc1Nc1nc2nc(C(F)(F)F)[nH]c2nc1NC1CCCCC1 [Compound 12v, N^5-(2-fluorophenyl)-N^6-cyclohexyl-2-(trifluoromethyl)-1H-imidazo[4,5-b]pyrazine-5,6-diamine] |
| 5 to 20 | Fc1ccccc1Nc1nc2nc(C(F)(F)F)[nH]c2nc1Nc1cc(C(F)(F)F)cc(C(F)(F)F)c1 [Compound 12q, N^5-(2-fluorophenyl)-N^6-(3,5-bis(trifluoromethyl)phenyl)-2-(trifluoromethyl)-1H-imidazo[4,5-b]pyrazine-5,6-diamine] |
| 5 to 20 | Cc1ccc(Nc2nc3[nH]c(C(F)(F)F)nc3nc2Nc2ccccc2F)cc1 [Compound 12u, N^5-(2-fluorophenyl)-N^6-(p-tolyl)-2-(trifluoromethyl)-1H-imidazo[4,5-b]pyrazine-5,6-diamine] |

Second part, the compound before the results:

| SMILES | EC50 [µM] |
| --- | --- |
| Fc1ccccc1Nc1nc2nonc2nc1Nc1cccc(C(F)(F)F)c1F [Compound 4bb, N^5-(2-fluoro-3-(trifluoromethyl)phenyl)-N^6-(2-fluorophenyl)-[1,2,5]oxadiazolo[3,4-b]pyrazine-5,6-diamine] | < 5 |
| Fc1ccccc1Nc1nc2nonc2nc1Nc1cccc(OC(F)(F)F)c1 [Compound 4r, N^5-(2-fluorophenyl)-N^6-(3-(trifluoromethoxy)phenyl)-[1,2,5]oxadiazolo[3,4-b]pyrazine-5,6-diamine] | 5 to 20 |
| Fc1ccccc1Nc1nc2nonc2nc1Nc1ccc(C(F)(F)F)cc1 [Compound 4w, N^5-(2-fluorophenyl)-N^6-(4-(trifluoromethyl)phenyl)-[1,2,5]oxadiazolo[3,4-b]pyrazine-5,6-diamine] | < 5 |
| FC(F)(F)Oc1ccccc1Nc1nc2nonc2nc1Nc1ccccc1OC(F)(F)F [Compound 3k, N^5,N^6-bis(2-(trifluoromethoxy)phenyl)-[1,2,5]oxadiazolo[3,4-b]pyrazine-5,6-diamine] | < 5 |
| FC(F)(F)c1ccc(Nc2nc3nonc3nc2Nc2cccc(C(F)(F)F)c2)cc1 [Compound 4x, N^5-(3-(trifluoromethyl)phenyl)-N^6-(4-(trifluoromethyl)phenyl)-[1,2,5]oxadiazolo[3,4-b]pyrazine-5,6-diamine] | < 5 |
| COc1cccc(Nc2nc3nonc3nc2Nc2cccc(OC)c2)c1 [Compound 3e, N^5,N^6-bis(3-methoxyphenyl)-[1,2,5]oxadiazolo[3,4-b]pyrazine-5,6-diamine] | > 20 |
| Fc1ccc(C(F)(F)F)cc1Nc1nc2nonc2nc1Nc1cc(C(F)(F)F)ccc1F [Compound 3y, N^5,N^6-bis(2-fluoro-5-(trifluoromethyl)phenyl)-[1,2,5]oxadiazolo[3,4-b]pyrazine-5,6-diamine] | < 5 |
| Cc1ccc(Nc2nc3nonc3nc2Nc2ccccc2F)cc1 [Compound 4i, N^5-(2-fluorophenyl)-N^6-(p-tolyl)-[1,2,5]oxadiazolo[3,4-b]pyrazine-5,6-diamine] | 5 to 20 |
| Fc1ccccc1Nc1nc2nonc2nc1Nc1ccccc1 [Compound 4a, N^5-(2-fluorophenyl)-N^6-phenyl-[1,2,5]oxadiazolo[3,4-b]pyrazine-5,6-diamine] | < 5 |
| FC(F)(F)c1cccc(Nc2nc3nonc3nc2Nc2cccc(C(F)(F)F)c2)c1 [Compound 3r, N^5,N^6-bis(3-(trifluoromethyl)phenyl)-[1,2,5]oxadiazolo[3,4-b]pyrazine-5,6-diamine] | < 5 |
| CCOc1ccc(Nc2nc3nonc3nc2Nc2ccccc2F)cc1 [Compound 4o, N^5-(4-ethoxyphenyl)-N^6-(2-fluorophenyl)-[1,2,5]oxadiazolo[3,4-b]pyrazine-5,6-diamine] | < 5 |
